The nature of this series: recombinant UMI read abundance after kanamycin selection (control-corrected) (log10(CPM+1)); higher = more efficient recombination; extreme values may be limits of the assay; sequences stand for … in AGTGCAGAGAAAATCGGCCAGTTTTCTCTGCCTGCAGTCCGCATGCCGTGGGACCCCTTGGGTTCTAACCTGTTGCCTAGATTTATGCAGCGGACTGCCTTTCTCCCAAAGTGATAAACCGG…AGGTTGGTTTCACT; site = the 11-nt donor. The method, boiled down: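 Sequenced counts of recombinant UMIs were turned into CPM, averaged across replicates and scaled with control-derived factors. The reported figure is log10(CPM+1). Those UMIs, each 12 nt long, tagged donor and donor-binding-loop pairs on a plasmid with a promoterless kanamycin gene, screened as a pool in Escherichia coli with IPTG (0.07 mM) plus kanamycin or without selection.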
Turning to “CACATGACATGGACCGGTTTTCCCGGTAATCCGTATTTGGA (site CACATGACTTC)”, the “recombinant UMI read abundance (log10)” value amounted to 1.1.

For “CACATGTCATGGACCGGTTTTCCCGGTAATCCGTATTTGCA (site CACATGTCTTG)”, the “recombinant UMI read abundance (log10)” value stood at 2.4.

Take “CACATTTCATGGACCGGTTTTCCCGGTAATCCGTATTTGAA (site CACATTTCTTT)”: the “recombinant UMI read abundance (log10)” value came to 0.

As for “CACCACACATGGACCGGTTTTCCCGGTAATCCGTATTTGTA (site CACCACACTTA)”, the “recombinant UMI read abundance (log10)” value amounted to 2.13.

As to “CACCACACATGGACCGGTTTTCCCGGTAATCCGTATTTGTA (site CCCCACACTTA)”, the “recombinant UMI read abundance (log10)” value is 0.591.

In the case of “CACCACACATGGACCGGTTTTCCCGGTAATCCGTATTTGTA (site CGCCACACTTA)”, the “recombinant UMI read abundance (log10)” value was 0.29.

With “CACCACACATGGACCGGTTTTCCCGGTAATCCGTATTTGTA (site CTCCACACTTA)”, the “recombinant UMI read abundance (log10)” value is 0.179.

For the sequence “CACCCGACATGGACCGGTTTTCCCGGTAATCCGTATTTGTA (site CACCCGACTTA)”, the “recombinant UMI read abundance (log10)” value was 1.32.

Regarding “CACCCGTCATGGACCGGTTTTCCCGGTAATCCGTATTTGTT (site CACCCGTCTAA)”, the “recombinant UMI read abundance (log10)” value was 2.2.

In the case of “CACCGATCATGGACCGGTTTTCCCGGTAATCCGTATTTGCC (site CACCGATCTGG)”, the “recombinant UMI read abundance (log10)” value is 2.44.

On to “CACCTTACATGGACCGGTTTTCCCGGTAATCCGTATTTGCC (site CACCTTACTGG)”, for which the “recombinant UMI read abundance (log10)” value came to 1.46.

As to “CACGACACATGGACCGGTTTTCCCGGTAATCCGTATTTGTG (site CACGACACTCA)”, the “recombinant UMI read abundance (log10)” value came to 1.41.

As for “CACGATTCATGGACCGGTTTTCCCGGTAATCCGTATTTGCC (site CACGATTCTGG)”, the “recombinant UMI read abundance (log10)” value was 2.11.

As for “CACGCAGCATGGACCGGTTTTCCCGGTAATCCGTATTTGCG (site CACGCAGCTCG)”, the “recombinant UMI read abundance (log10)” value was 1.32.

Turning to “CACGCGCCATGGACCGGTTTTCCCGGTAATCCGTATTTGTG (site CAAGCGCCTCA)”, the “recombinant UMI read abundance (log10)” value came out at 0.00364.

As to “CACGCGCCATGGACCGGTTTTCCCGGTAATCCGTATTTGTG (site CACGCGCCTCA)”, the “recombinant UMI read abundance (log10)” value turned out to be 0.00403.

As to “CACGCGCCATGGACCGGTTTTCCCGGTAATCCGTATTTGTG (site CAGGCGCCTCA)”, the “recombinant UMI read abundance (log10)” value turned out to be 0.056.

Regarding “CACGCGCCATGGACCGGTTTTCCCGGTAATCCGTATTTGTG (site CATGCGCCTCA)”, the “recombinant UMI read abundance (log10)” value was 0.

As for “CACGCGTCATGGACCGGTTTTCCCGGTAATCCGTATTTGGG (site CACGCGTCTCC)”, the “recombinant UMI read abundance (log10)” value amounted to 1.04.

For “CACGGCCCATGGACCGGTTTTCCCGGTAATCCGTATTTGTT (site AACGGCCCTAA)”, the “recombinant UMI read abundance (log10)” value is 0.0126.

Turning to “CACGGCCCATGGACCGGTTTTCCCGGTAATCCGTATTTGTT (site CAAGGCCCTAA)”, the “recombinant UMI read abundance (log10)” value came out at 0.0138.

Consider “CACGGCCCATGGACCGGTTTTCCCGGTAATCCGTATTTGTT (site CACAGCCCTAA)”, for which the “recombinant UMI read abundance (log10)” value was determined as 0.215.

Regarding “CACGGCCCATGGACCGGTTTTCCCGGTAATCCGTATTTGTT (site CACCGCCCTAA)”, the “recombinant UMI read abundance (log10)” value was 0.0224.

Take “CACGGCCCATGGACCGGTTTTCCCGGTAATCCGTATTTGTT (site CACGACCCTAA)”: the “recombinant UMI read abundance (log10)” value is 0.652.

For “CACGGCCCATGGACCGGTTTTCCCGGTAATCCGTATTTGTT (site CACGCCCCTAA)”, the “recombinant UMI read abundance (log10)” value came to 0.0151.

On to “CACGGCCCATGGACCGGTTTTCCCGGTAATCCGTATTTGTT (site CACGGACCTAA)”, for which the “recombinant UMI read abundance (log10)” value turned out to be 0.0168.

As for “CACGGCCCATGGACCGGTTTTCCCGGTAATCCGTATTTGTT (site CACGGCACTAA)”, the “recombinant UMI read abundance (log10)” value came to 0.0172.

As to “CACGGCCCATGGACCGGTTTTCCCGGTAATCCGTATTTGTT (site CACGGCCCTAA)”, the “recombinant UMI read abundance (log10)” value was found to be 0.135.

As to “CACGGCCCATGGACCGGTTTTCCCGGTAATCCGTATTTGTT (site CACGGCCCTAC)”, the “recombinant UMI read abundance (log10)” value is 0.017.

Consider “CACGGCCCATGGACCGGTTTTCCCGGTAATCCGTATTTGTT (site CACGGCCCTAG)”, for which the “recombinant UMI read abundance (log10)” value came to 1.14.

Consider “CACGGCCCATGGACCGGTTTTCCCGGTAATCCGTATTTGTT (site CACGGCCCTAT)”, for which the “recombinant UMI read abundance (log10)” value was determined as 0.437.

“CACGGCCCATGGACCGGTTTTCCCGGTAATCCGTATTTGTT (site CACGGCCCTCA)”: the “recombinant UMI read abundance (log10)” value was determined as 0.0268.

For “CACGGCCCATGGACCGGTTTTCCCGGTAATCCGTATTTGTT (site CACGGCCCTGA)”, the “recombinant UMI read abundance (log10)” value was found to be 1.16.

On to “CACGGCCCATGGACCGGTTTTCCCGGTAATCCGTATTTGTT (site CACGGCCCTTA)”, for which the “recombinant UMI read abundance (log10)” value came out at 0.0328.

Regarding “CACGGCCCATGGACCGGTTTTCCCGGTAATCCGTATTTGTT (site CACGGCGCTAA)”, the “recombinant UMI read abundance (log10)” value turned out to be 0.0318.

Turning to “CACGGCCCATGGACCGGTTTTCCCGGTAATCCGTATTTGTT (site CACGGCTCTAA)”, the “recombinant UMI read abundance (log10)” value came to 1.79.

For “CACGGCCCATGGACCGGTTTTCCCGGTAATCCGTATTTGTT (site CACGGGCCTAA)”, the “recombinant UMI read abundance (log10)” value is 0.

With “CACGGCCCATGGACCGGTTTTCCCGGTAATCCGTATTTGTT (site CACGGTCCTAA)”, the “recombinant UMI read abundance (log10)” value came to 0.311.

As to “CACGGCCCATGGACCGGTTTTCCCGGTAATCCGTATTTGTT (site CACGTCCCTAA)”, the “recombinant UMI read abundance (log10)” value amounted to 0.0115.

For “CACGGCCCATGGACCGGTTTTCCCGGTAATCCGTATTTGTT (site CACTGCCCTAA)”, the “recombinant UMI read abundance (log10)” value amounted to 0.0132.

As for “CACGGCCCATGGACCGGTTTTCCCGGTAATCCGTATTTGTT (site CAGGGCCCTAA)”, the “recombinant UMI read abundance (log10)” value worked out at 0.00724.

For “CACGGCCCATGGACCGGTTTTCCCGGTAATCCGTATTTGTT (site CATGGCCCTAA)”, the “recombinant UMI read abundance (log10)” value came out at 0.013.

“CACGGCCCATGGACCGGTTTTCCCGGTAATCCGTATTTGTT (site CCCGGCCCTAA)”: the “recombinant UMI read abundance (log10)” value is 0.0158.

On to “CACGGCCCATGGACCGGTTTTCCCGGTAATCCGTATTTGTT (site CGCGGCCCTAA)”, for which the “recombinant UMI read abundance (log10)” value is 0.0132.

Turning to “CACGGCCCATGGACCGGTTTTCCCGGTAATCCGTATTTGTT (site CTCGGCCCTAA)”, the “recombinant UMI read abundance (log10)” value amounted to 0.0153.

“CACGGCCCATGGACCGGTTTTCCCGGTAATCCGTATTTGTT (site GACGGCCCTAA)”: the “recombinant UMI read abundance (log10)” value is 0.0197.

As for “CACGGCCCATGGACCGGTTTTCCCGGTAATCCGTATTTGTT (site TACGGCCCTAA)”, the “recombinant UMI read abundance (log10)” value came to 0.0279.

Consider “CACGGCGCATGGACCGGTTTTCCCGGTAATCCGTATTTGTT (site CACGGCACTAA)”, for which the “recombinant UMI read abundance (log10)” value was 1.5.

For the sequence “CACGGCGCATGGACCGGTTTTCCCGGTAATCCGTATTTGTT (site CACGGCCCTAA)”, the “recombinant UMI read abundance (log10)” value was found to be 0.445.

Regarding “CACGGCGCATGGACCGGTTTTCCCGGTAATCCGTATTTGTT (site CACGGCGCTAA)”, the “recombinant UMI read abundance (log10)” value was 1.74.

“CACGGCGCATGGACCGGTTTTCCCGGTAATCCGTATTTGTT (site CACGGCTCTAA)”: the “recombinant UMI read abundance (log10)” value was 1.22.

In the case of “CACGTATCATGGACCGGTTTTCCCGGTAATCCGTATTTGAC (site CACGTATCTGT)”, the “recombinant UMI read abundance (log10)” value came to 2.78.

For the origin of these results see the supplement of paper PMC11208160.
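Also: IS621 bridge recombinase in Escherichia coli cells against a fixed T5 target plasmid.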
